Source: BindingDB's records for doi:10.1021/acs.jmedchem.8b01300 (Emory University School of Medicine, 2019)

Columns and labels:
[1] = target: RNA-directed RNA polymerase (Hepacivirus hominis, UniProt Q8JXU8); test: Inhibition of NS5B polymerase in wild type HCV genotype 1b infected in human Huh7 replicon cells after 5 days by RT-PCR assay
[2] = Inhibition of NS5B polymerase in wild type HCV genotype 1b infected in human Huh7 replicon cells after 5 days by RT-PCR assay

| SMILES | EC50 [1] | EC50 [2] |
| --- | --- | --- |
| CC(C)OC(=O)[C@H](C)NP(=O)(OC[C@H]1O[C@@H](n2ccc(N)nc2=O)[C@](F)(Br)[C@H]1O)Oc1ccccc1 (stereo not given in full) | 0.6 µM |  |
| Nc1ccn([C@@H]2O[C@H](CO)[C@@H](O)[C@]2(F)Br)c(=O)n1 | 4 µM |  |
| Nc1nc2c(ncn2[C@@H]2O[C@H](CO)[C@@H](O)[C@]2(F)Br)c(=O)[nH]1 |  | > 10 µM |
| C[C@@]1(O)[C@H](O)[C@@H](CO)O[C@H]1n1ccc(N)nc1=O | 2.8 µM |  |
| Nc1ncnc2c1ncn2[C@@H]1O[C@H](CO)[C@H](O)[C@@]1(F)Br | > 10 µM |  |
